Assay results published in patent publication US8436205B2, “Tetrahydronaphthalene compounds” (Actelion Pharmaceuticals Ltd., priority 2008, dated 2013).

Legend:
[1] = system: human Cav3.1 Cav3.2 or Cav3.3 channel; test: In vitro assay T channel (FLIPR, Ca2+-induced calcium fluorescence); type: cell-based; settings: HEK293 cells; 10 mM Ca2+; geometric mean from n values; read-out: T channel antagonistic activity IC50
Method: The T channel antagonistic activity (IC50 values) of the compounds of formula (I) is determined in accordance with the following experimental method and data are shown in Table 1.
Human embryonic kidney (HEK293) cells expressing the human Cav3.1 Cav3.2 or Cav3.3 channel, respectively, are grown in culture medium (DMEM containing 10% heat-inactivated fetal calf serum (FCS), 100 U/ml penicillin, 100 μg/ml streptomycin and 1 mg/ml G418). The cells are seeded at 20.000 cells/well into 384-well black clear bottom sterile plates (poly-L-lysine-coated, Becton Dickinson). The seeded plates are incubated overnight at 37° C. in 5% CO2. The Ca^2+ solution is prepared as 100 mM stock solution in 100 mM tetraethylammoniumchloride (TEA-chloride), 50 mM HEPES, 2.5 mM CaCl2, 5 mM KCl, 1 mM MgCl2, adjusted to pH 7.2 with TEA-hydroxide, for use in the assay at a final concentration of 10 mM. Antagonists are prepared as 10 mM stock solutions in DMSO, then diluted in 384 w plates first in DMSO, then in 100 mM TEA-chloride, 50 mM HEPES, 2.5 mM CaCl2, 5 mM KCl, 1 mM MgCl2, adjusted to pH 7.2 with TEA-hydroxide, to obtain 9× stocks. On the day of the assay, 25 μl of staining buffer (HBSS containing 20 mM HEPES, 0.375 g/l NaHCO3 and 3 μM of the fluorescent calcium indicator fluo-4 AM (1 mM stock solution in DMSO, containing 10% pluronic) is added to each well of the seeded plate. The 384-well cell-plates are incubated for 60 min at 37° C. in 5% CO2 followed by washing with 2×50 μl per well using HBSS containing 0.1% BSA, 20 mM HEPES, 0.375 g/l NaHCO3, leaving 50 […] of this buffer for equilibration at room temperature (30-60 min). Within the Fluorescent Imaging Plate Reader (FLIPR, Molecular Devices), antagonists are added to the plate in a volume of 6.25 Owen, incubated for 3 min, and finally 6.25 […] of Ca^2+ solution is added. Fluorescence is measured for each well at 2 second intervals for 8 minutes, and the area under the curve of each fluorescence peak is compared to the area of the fluorescence peak induced by 10 mM Ca^2+ with vehicle in place of antagonist. For each antagonist, the 1050 value (the concentration (in nM) of compound needed to inhibit 50% of the Ca^2+-induced fluorescence response) up to 10 μM is determined. The calculated IC50 values of the compounds may fluctuate depending on the daily cellular assay performance. Fluctuations of this kind are known to those skilled in the art.

isolated mouse hearts = test: Effect on isolated hearts according to the Langendorff method (Lgdff)
Method: The compounds were tested for their potential to reduce blood pressure and their effect on the contractility of the heart muscle. EC50 values on isolated mouse hearts were determined according to Literature (Doring H J., The isolated perfused heart according to Langendorff technique—function—application, Physiol. Bohemoslov. 1990, 39(6), 481-504; Kligfield P, Horner H, Brachfeld N., A model of graded ischemia in the isolated perfused rat heart, J. Appl. Physiol. 1976 June, 40(6), 1004-8).
7 example compounds have been measured using the procedure described above for the Langendorff experiment. The measured EC50 values were in the range of 7 to 29 nM with an average of 13 nM.

SMILES | IC50 [1] [µM] | EC50 (isolated mouse hearts) [µM]
COCC(C)(COC)CN(CCF)CCCN(C)CC[C@@]1(OC(=O)CC(F)(F)F)CCc2cc(F)ccc2[C@@H]1C(C)C [Example 3, 3,3,3-Trifluoro-propionic acid (1S,2S)-6-fluoro-2-[2-({3-[(2-fluoro-ethyl)-(3-methoxy-2-methoxymethyl-2-methyl-propyl)-amino]-propyl}-methyl-amino)-ethyl]-1-isopropyl-1,2,3,4-tetrahydro-naphthalen-2-yl ester] | 5.41 | 0.007
COCC(C)(COC)CN(CCF)CCCN(C)CC[C@@]1(OC(=O)CF)CCc2cc(F)ccc2[C@@H]1C(C)C [Example 4, Fluoro-acetic acid (1S,2S)-6-fluoro-2-[2-({3-[(2-fluoro-ethyl)-(3-methoxy-2-methoxymethyl-2-methyl-propyl)-amino]-propyl}-methyl-amino)-ethyl]-1-isopropyl-1,2,3,4-tetrahydro-naphthalen-2-yl ester] | 3.96 | –
COCC(C)(COC)CN(CCCN(C)CC[C@@]1(O)CCc2cc(F)ccc2[C@@H]1C(C)C)CC(F)F [Example 5, (1S,2S)-2-[2-({3-[(2,2-Difluoro-ethyl)-(3-methoxy-2-methoxymethyl-2-methyl-propyl)-amino]-propyl}methyl-amino)-ethyl]-6-fluoro-1-isopropyl-1,2,3,4-tetrahydro-naphthalen-2-ol] | 3.7 | –
COCC(C)(COC)CN(CCCN(C)CC[C@@]1(OC(=O)C(C)C)CCc2cc(F)ccc2[C@@H]1C(C)C)CC(F)F [Example 6, Isobutyric acid (1S,2S)-2-[2-({3-[(2,2-difluoro-ethyl)-(3-methoxy-2-methoxymethyl-2-methyl-propyl)-amino]-propyl}-methyl-amino)-ethyl]-6-fluoro-1-isopropyl-1,2,3,4-tetrahydro-naphthalen-2-yl ester] | 7.89 | 0.009
COCC(C)(COC)CN(CCCN(C)CC[C@@]1(OC(=O)CC(F)(F)F)CCc2cc(F)ccc2[C@@H]1C(C)C)CC(F)F [Example 7, 3,3,3-Trifluoro-propionic acid (1S,2S)-2-[2-({3-[(2,2-difluoro-ethyl)-(3-methoxy-2-methoxymethyl-2-methyl-propyl)-amino]-propyl}-methyl-amino)-ethyl]-6-fluoro-1-isopropyl-1,2,3,4-tetrahydro-naphthalen-2-yl ester] | 6.34 | –
COCC(C)(COC)CN(CCCN(C)CC[C@@]1(OC(=O)CC(F)(F)F)CCc2cc(F)ccc2[C@@H]1C(C)C)CC(F)(F)F [Example 10, 3,3,3-Trifluoro-propionic acid (1S,2S)-6-fluoro-1-isopropyl-2-[2-({3-[(3-methoxy-2-methoxymethyl-2-methyl-propyl)-(2,2,2-trifluoro-ethyl)-amino]-propyl}-methyl-amino)-ethyl]-1,2,3,4-tetrahydro-naphthalen-2-yl ester] | > 10 | 0.009

The next molecules have a lower IC50 [1] than those just listed; values first:

IC50 [1] [µM] | EC50 (isolated mouse hearts) [µM] | SMILES
3.25 | – | COCC(C)(COC)CN(CCF)CCCN(C)CC[C@@]1(O)CCc2cc(F)ccc2[C@@H]1C(C)C [Example 1, (1S,2S)-6-Fluoro-2-[2-({3-[(2-fluoro-ethyl)-(3-methoxy-2-methoxymethyl-2-methyl-propyl)-amino]-propyl}-methyl-amino)-ethyl]-1-isopropyl-1,2,3,4-tetrahydro-naphthalen-2-ol]
3.15 | – | COCC(C)(COC)CN(CCF)CCCN(C)CC[C@@]1(OC(=O)C(C)C)CCc2cc(F)ccc2[C@@H]1C(C)C [Example 2, Isobutyric acid (1S,2S)-6-fluoro-2-[2-({3-[(2-fluoro-ethyl)-(3-methoxy-2-methoxymethyl-2-methyl-propyl)-amino]-propyl}-methyl-amino)-ethyl]-1-isopropyl-1,2,3,4-tetrahydro-naphthalen-2-yl ester]
2.88 | – | COCC(C)(COC)CN(CCCN(C)CC[C@@]1(O)CCc2cc(F)ccc2[C@@H]1C(C)C)CC(F)(F)F [Example 8, (1S,2S)-6-Fluoro-1-isopropyl-2-[2-({3-[(3-methoxy-2-methoxymethyl-2-methyl-propyl)-(2,2,2-trifluoro-ethyl)-amino]-propyl}-methyl-amino)-ethyl]-1,2,3,4-tetrahydro-naphthalen-2-ol]
1.69 | – | COCC(C)(COC)CN(CCCN(C)CC[C@@]1(OC(=O)C(C)C)CCc2cc(F)ccc2[C@@H]1C(C)C)CC(F)(F)F [Example 9, Isobutyric acid (1S,2S)-6-fluoro-1-isopropyl-2-[2-({3-[(3-methoxy-2-methoxymethyl-2-methyl-propyl)-(2,2,2-trifluoro-ethyl)-amino]-propyl}-methyl-amino)-ethyl]-1,2,3,4-tetrahydro-naphthalen-2-yl ester]
